Patent US10457707B2, “Substituted urea depsipeptide analogs as activators of the CLPP endopeptidase” (priority 2015, dated 2019)
In brackets after ≈: the same amount, converted by molar mass. Read-outs that look alike come from different tables or passages of the source. *1 amine or outer side, *2 acyl side, *3 side chain or, on linkers, in order; H or OH if unused. Where a SMILES comes first, the peptide text is derived from it. Bridges are numbered along the chain shown (N, C = ends). [ ]: non-standard residue; d: D form. The star is where a group is joined. ξ: configuration not given here. Piperazine(2S-CO,4-Me) = CN1CCN[C@H](C(=O)O)C1; Phe(3,5-F2) = N[C@@H](Cc1cc(F)cc(F)c1)C(=O)O; NH(1-Me-indolin-5-yl) = CN1CCc2cc(N*)ccc21; Morpholine(3S-CO) = O=C(O)[C@@H]1COCCN1; Pro(4S-Me) = C[C@@H]1CN[C@H](C(=O)O)C1; NH(4-Cl-2-F-phenyl) = Fc1cc(Cl)ccc1N*; Pro(4R-Me) = C[C@H]1CN[C@H](C(=O)O)C1; NH(3,4-Me2-phenyl) = Cc1ccc(N*)cc1C; NMeaThr = CN[C@H](C(=O)O)[C@H](C)O; Hyp = O=C(O)[C@@H]1C[C@@H](O)CN1; NH(4-Et-phenyl) = CCc1ccc(N*)cc1; NMeT = CN[C@H](C(=O)O)[C@@H](C)O; NH(4-Me-phenyl) = Cc1ccc(N*)cc1; ξNMeThr = CNC(C(=O)O)[C@@H](C)O; aThr = C[C@H](O)[C@H](N)C(=O)O; Pip = O=C(O)[C@@H]1CCCCN1; CO = O=C([*:1])[*:2]

Assays:
Sa-ClpP = target: T1, Sa-ClpP (Staphylococcus aureus, UniProt Q2G036); experiment: ADEP displacement fluorescence polarization assay (FP probe ADEP 2591); assay type: binding
T1 construct: made in house; host or cells: E. coli BL21(DE3)
T1 sequence (Q2G036 1-195): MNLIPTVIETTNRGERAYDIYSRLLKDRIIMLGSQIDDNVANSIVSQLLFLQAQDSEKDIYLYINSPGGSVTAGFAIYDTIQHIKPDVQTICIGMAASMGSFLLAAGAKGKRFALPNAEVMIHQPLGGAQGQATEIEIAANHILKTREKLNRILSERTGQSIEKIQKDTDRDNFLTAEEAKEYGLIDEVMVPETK
In short: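 Probe displacement was measured in mP after compounds sat 120 min at room temperature with pre-equilibrated (1 h) Sa-ClpP (15 μM) and ADEP 2591 FP probe (50 nM) in pH 8.0 Tris-HCl with 2% DMSO. Data were scaled between DMSO and 200 μM ADEP 2378 and fit by variable-slope log-inhibitor regression.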

[1] = test system: Bacillus subtilis, ATCC 23857; experiment: Minimal inhibitory concentration assay (microbroth dilution); assay type: cell-based
In short: (§1)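 Compound is serially diluted two-fold in the appropriate broth, and bacterial inoculum at about 10^5 cfu/mL is added so the highest final concentration is 200 μM. Plates stay overnight at 37 °C under aerobic conditions before growth is scored by eye.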

[2] = test system: Staphylococcus aureus, ATCC 29213; experiment: as above; assay type: cell-based; settings: ATCC29213, read-out: Minimal Inhibitory Concentrations S. aureus ATCC 29213
In short: as §1

[3] = test system: Staphylococcus aureus, NRS70; experiment: as above; assay type: cell-based
In short: as §1

[4] = test system: Streptococcus pyogenes, ATCC 700294; experiment: as above; assay type: cell-based
In short: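 Plates with two-fold compound dilution series in broth were incubated overnight, aerobically, at 37° C, following CLSI microdilution guidance.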

[5] = Bacillus subtilis, ATCC23857, read-out: Minimal Inhibitory Concentrations B. subtilis ATCC 23857
[6] = Staphylococcus aureus, NRS70, read-out: Minimal Inhibitory Concentrations S. aureus NRS70
[7] = Streptococcus pyogenes, ATCC700294, read-out: Minimal Inhibitory Concentrations S. pyogenes ATCC 700294
[8] = Bacillus subtilis, ATCC23857; read-out: Minimal Inhibitory Concentrations B. subtilis ATCC 23857
[9] = Staphylococcus aureus, NRS70; read-out: Minimal Inhibitory Concentrations S. aureus NRS70
[10] = Streptococcus pyogenes, ATCC700294; read-out: Minimal Inhibitory Concentrations S. pyogenes ATCC 700294

For `Cc1ccc(NC(=O)N[C@@H](Cc2cc(F)cc(F)c2)C(=O)N[C@@H]2C(=O)N3C[C@H](O)C[C@H]3C(=O)N3CCCC[C@H]3C(=O)N[C@@H](C)C(=O)N3C[C@H](C)C[C@H]3C(=O)O[C@H]2C)cc1C` [Compound 212, (S)-3-(3,5-difluorophenyl)-2-(3-(3,4-dimethylphenyl)ureido)-N-((2R,6S,8aS,14aS,16R,20S,21S,23aS)-16-hydroxy-2,6,21-trimethyl-5,8,14,19,23-pentaoxooctadecahydro-1H,5H,14H,19H-pyrido[2,1-i]dipyrrolo[2,1-c:2′,1′-l][1]oxa[4,7,10,13]tetraazacyclohexadecin-20-yl)propanamide] ({NH(3,4-Me2-phenyl)-CO}-[Phe(3,5-F2)][aThr][Hyp][Pip]A[Pro(4R-Me)]; ester 2-C), the IC50 (Sa-ClpP) was 6.9 ± 0.3 µM, the MIC [1, 5] was under 0.2 µM and the MIC [2] was 0.005 µM (≈ 0.00419 µg/mL). The MIC [3, 6] was 0.002 µM (≈ 0.00168 µg/mL) and the MIC [4, 7] was under 0.2 µM.

`C[C@@H]1C[C@H]2C(=O)OC[C@H](NC(=O)[C@H](Cc3cc(F)cc(F)c3)NC(=O)Nc3ccc(Cl)cc3F)C(=O)N3CCC[C@H]3C(=O)N3CCN(C)C[C@H]3C(=O)N[C@@H](C)C(=O)N2C1` [Compound 330, (S)-2-(3-(4-chloro-2-fluorophenyl)ureido)-3-(3,5-difluorophenyl)-N-((6aS,12S,15aS,17R,21S,23aS)-2,17,21-trimethyl-6,11,15,20,23-pentaoxooctadecahydro-2H,6H,11H,15H-pyrazino[2,1-i]dipyrrolo[2,1-c:2′,1′-l][1]oxa[4,7,10,13]tetraazacyclohexadecin-12-yl)propanamide] ({NH(4-Cl-2-F-phenyl)-CO}-[Phe(3,5-F2)]SP[Piperazine(2S-CO,4-Me)]A[Pro(4R-Me)]; ester 2-C) gave an IC50 (Sa-ClpP) of 3.74 ± 0.2 µM, an MIC [1, 8] of under 0.02 µM and an MIC [2] of 0.078 µM (≈ 0.0661 µg/mL). The MIC [3, 9] was 0.078 µM (≈ 0.0661 µg/mL) and the MIC [4, 10] was 0.078 µM (≈ 0.0661 µg/mL).

Work on `C[C@@H]1C[C@H]2C(=O)OC[C@H](NC(=O)[C@H](Cc3cc(F)cc(F)c3)NC(=O)Nc3ccc4c(c3)OCO4)C(=O)N3C[C@H](O)C[C@H]3C(=O)N3CCCCC3C(=O)N[C@@H](C)C(=O)N2C1` (stereo partly drawn) [Compound 325, (S)-2-(3-(benzo[d][1,3]dioxol-5-yl)ureido)-3-(3,5-difluorophenyl)-N-((2R,6S,8aR,14aS,16R,20S,23aS)-16-hydroxy-2,6-dimethyl-5,8,14,19,23-pentaoxooctadecahydro-1H,5H,14H,19H-pyrido[2,1-i]dipyrrolo[2,1-c:2′,1′-l][1]oxa[4,7,10,13]tetraazacyclo-hexadecin-20-yl)propanamide] yielded an IC50 (Sa-ClpP) of 4.27 ± 0.2 µM, an MIC [1, 8] of 2.5 µM (≈ 2.1 µg/mL) and an MIC [2] of 1.25 µM (≈ 1.05 µg/mL). For the same compound, the MIC [3, 9] was 1.25 µM (≈ 1.05 µg/mL) and the MIC [4, 10] was 0.156 µM (≈ 0.131 µg/mL).

`C[C@@H]1C[C@H]2C(=O)O[C@@H](C)[C@H](NC(=O)[C@H](Cc3cc(F)cc(F)c3)NC(=O)Nc3ccc(Cl)cc3F)C(=O)N3CCC[C@H]3C(=O)N(C)C([C@@H](C)O)C(=O)N[C@@H](C)C(=O)N2C1` (stereo partly drawn) [Compound 313, (S)-2-(3-(4-chloro-2-fluorophenyl)ureido)-3-(3,5-difluorophenyl)-N-((2R,6S,9R,11aS,17S,18S,20aS)-9-((R)-1-hydroxyethyl)-2,6,10,18-tetramethyl-5,8,11,16,20-pentaoxohexadecahydro-1H,5H,16H-dipyrrolo[2,1-c:2′,1′-l][1]oxa[4,7,10,13]tetraazacyclohexadecin-17-yl)propanamide] ({NH(4-Cl-2-F-phenyl)-CO}-[Phe(3,5-F2)][aThr]P[ξNMeThr]A[Pro(4R-Me)]; ester 2-C) showed an IC50 (Sa-ClpP) of 7.3 ± 0.5 µM, an MIC [1, 8] of under 0.02 µM and an MIC [2] of under 0.02 µM. It also gave an MIC [3, 9] of under 0.02 µM and an MIC [4, 10] of under 0.02 µM.

With `CCc1ccc(NC(=O)N[C@@H](Cc2cc(F)cc(F)c2)C(=O)N[C@@H]2C(=O)N3CCC[C@H]3C(=O)N(C)[C@@H]([C@H](C)O)C(=O)N[C@@H](C)C(=O)N3C[C@@H](C)C[C@H]3C(=O)O[C@H]2C)cc1` [Compound 204, (S)-3-(3,5-difluorophenyl)-2-(3-(4-ethylphenyl)ureido)-N-((2S,6S,9S,11aS,17S,18S,20aS)-9-((S)-1-hydroxyethyl)-2,6,10,18-tetramethyl-5,8,11,16,20-pentaoxohexadecahydro-1H,5H,16H-dipyrrolo[2,1-c:2′,1′-l][1]oxa[4,7,10,13]tetraazacyclohexadecin-17-yl)propanamide] ({NH(4-Et-phenyl)-CO}-[Phe(3,5-F2)][aThr]P[NMeaThr]A[Pro(4S-Me)]; ester 2-C) the IC50 (Sa-ClpP; displacement of FP probe ADEP 2591 from Sa-ClpP, read-out: ADEP Displacement IC50) was 7 ± 0.4 µM, the MIC [1, 8] was 0.049 µM (≈ 0.0405 µg/mL) and the MIC [2] was 0.098 µM (≈ 0.0809 µg/mL). The MIC [3, 9] was 0.098 µM (≈ 0.0809 µg/mL) and the MIC [4, 10] was 0.098 µM (≈ 0.0809 µg/mL).

Work on `C[C@@H]1C[C@H]2C(=O)O[C@@H](C)[C@H](NC(=O)[C@H](Cc3cc(F)cc(F)c3)NC(=O)Nc3ccc4c(c3)CCN4C)C(=O)N3CCC[C@H]3C(=O)N3CCOC[C@H]3C(=O)N[C@@H](C)C(=O)N2C1` [Compound 312, (S)-3-(3,5-difluorophenyl)-2-(3-(1-methylindolin-5-yl)ureido)-N-((6aS,12S,13S,15aS,17R,21S,23aS)-13,17,21-trimethyl-6,11,15,20,23-pentaoxooctadecahydro-6H,11H,15H-[1,4]oxazino[3,4-i]dipyrrolo[2,1-c:2′,1′-l][1]oxa[4,7,10,13]tetraazacyclo-hexadecin-12-yl)propanamide] ({NH(1-Me-indolin-5-yl)-CO}-[Phe(3,5-F2)][aThr]P[Morpholine(3S-CO)]A[Pro(4R-Me)]; ester 2-C) yielded an IC50 (Sa-ClpP) of 6.3 ± 0.4 µM, an MIC [1, 5] of 0.313 µM (≈ 0.266 µg/mL) and an MIC [2] of 0.156 µM (≈ 0.133 µg/mL). It also gave an MIC [3, 6] of 0.078 µM (≈ 0.0664 µg/mL) and an MIC [4, 7] of 0.156 µM (≈ 0.133 µg/mL).

`Cc1ccc(NC(=O)N[C@@H](Cc2cc(F)cc(F)c2)C(=O)N[C@@H]2C(=O)N3CCC[C@H]3C(=O)N(C)[C@@H]([C@@H](C)O)C(=O)N[C@@H](C)C(=O)N3C[C@@H](C)C[C@H]3C(=O)O[C@H]2C)cc1` [Compound 35, (S)-3-(3,5-difluorophenyl)-N-((2S,6S,9S,11aS,17S,18S,20aS)-9-((R)-1-hydroxyethyl)-2,6,10,18-tetramethyl-5,8,11,16,20-pentaoxohexadecahydro-1H,5H,16H-dipyrrolo[2,1-c:2′,1′-l][1]oxa[4,7,10,13]tetraazacyclohexadecin-17-yl)-2-(3-(p-tolyl)ureido)propanamide] ({NH(4-Me-phenyl)-CO}-[Phe(3,5-F2)][aThr]P[NMeT]A[Pro(4S-Me)]; ester 2-C) showed an IC50 (Sa-ClpP) of 6.6 ± 0.4 µM, an MIC [1, 5] of 0.2 µM (≈ 0.162 µg/mL) and an MIC [2] of 0.2 µM (≈ 0.162 µg/mL). The MIC [3, 6] was 0.1 µM (≈ 0.0812 µg/mL) and the MIC [4, 7] was 0.39 µM (≈ 0.317 µg/mL).

`C[C@@H]1C[C@H]2C(=O)O[C@@H](C)[C@H](NC(=O)[C@H](Cc3cc(F)cc(F)c3)NC(=O)Nc3ccc4c(c3)CCN4C)C(=O)N3CCC[C@H]3C(=O)N(C)C([C@@H](C)O)C(=O)N[C@@H](C)C(=O)N2C1` (stereo partly drawn) [Compound 311, (S)-3-(3,5-difluorophenyl)-N-((2R,6S,9R,11aS,17S,18S,20aS)-9-((R)-1-hydroxyethyl)-2,6,10,18-tetramethyl-5,8,11,16,20-pentaoxohexadecahydro-1H,5H,16H-dipyrrolo[2,1-c:2′,1′-l][1]oxa[4,7,10,13]tetraazacyclohexadecin-17-yl)-2-(3-(1-methylindolin-5-yl)ureido)propanamide] ({NH(1-Me-indolin-5-yl)-CO}-[Phe(3,5-F2)][aThr]P[ξNMeThr]A[Pro(4R-Me)]; ester 2-C) showed an IC50 (Sa-ClpP) of 7.5 ± 0.3 µM, an MIC [1, 5] of 0.313 µM (≈ 0.267 µg/mL) and an MIC [2] of 0.156 µM (≈ 0.133 µg/mL). It also gave an MIC [3, 6] of 0.156 µM (≈ 0.133 µg/mL) and an MIC [4, 7] of 0.156 µM (≈ 0.133 µg/mL).

`C[C@@H]1C[C@H]2C(=O)O[C@@H](C)[C@H](NC(=O)[C@H](Cc3cc(F)cc(F)c3)NC(=O)Nc3ccc(Cl)cc3F)C(=O)N3CCC[C@H]3C(=O)N3CCOC[C@H]3C(=O)N[C@@H](C)C(=O)N2C1` [Compound 314, (S)-2-(3-(4-chloro-2-fluorophenyl)ureido)-3-(3,5-difluorophenyl)-N-((6aS,12S,13S,15aS,17R,21S,23aS)-13,17,21-trimethyl-6,11,15,20,23-pentaoxooctadecahydro-6H,11H,15H-[1,4]oxazino[3,4-i]dipyrrolo[2,1-c:2′,1′-l][1]oxa[4,7,10,13]tetraazacyclo-hexadecin-12-yl)propanamide] ({NH(4-Cl-2-F-phenyl)-CO}-[Phe(3,5-F2)][aThr]P[Morpholine(3S-CO)]A[Pro(4R-Me)]; ester 2-C) gave an IC50 (Sa-ClpP) of 7.2 ± 0.3 µM, an MIC [1, 8] of under 0.02 µM and an MIC [2] of under 0.02 µM. The MIC [3, 9] was under 0.02 µM and the MIC [4, 10] was under 0.02 µM.
